Values quoted from earlier work, collected in patent publication US20250311721A1, “UREA COMPLEXES OF ACTIVE INGREDIENTS” (priority 2022, published 2025).

## O=C(NCCc1ncc(C(F)(F)F)cc1Cl)c1ccccc1C(F)(F)F [Fluopyram]
DMSO
  solubility in DMSO: > 250 mg/mL
Ethyl acetate
  solubility in ethyl acetate: > 250 mg/mL
